What is called MIC is the least concentration at which growth counts as inhibited. Usually pIC50 stands for the IC50 on a negative log10 scale, so that one unit is a factor of ten.

The test system of experiment [1] is Mycobacterium tuberculosis. Description: Antimycobacterial activity against Mycobacterium tuberculosis H37Rv assessed as inhibition of bacterial growth incubated for 7 days by microplate alamar blue assay. Type of experiment: functional. The note with it: 168 h, time 7 day. For orientation: The colour change of resazurin is a common sign of viable cells or microbes.

Experiment [2] has as its target T1, Decaprenylphosphoryl-beta-D-ribose oxidase (Mycobacterium tuberculosis (strain ATCC 25618 / H37Rv), UniProt P9WJF1).
T1 sequence (P9WJF1 whole entry): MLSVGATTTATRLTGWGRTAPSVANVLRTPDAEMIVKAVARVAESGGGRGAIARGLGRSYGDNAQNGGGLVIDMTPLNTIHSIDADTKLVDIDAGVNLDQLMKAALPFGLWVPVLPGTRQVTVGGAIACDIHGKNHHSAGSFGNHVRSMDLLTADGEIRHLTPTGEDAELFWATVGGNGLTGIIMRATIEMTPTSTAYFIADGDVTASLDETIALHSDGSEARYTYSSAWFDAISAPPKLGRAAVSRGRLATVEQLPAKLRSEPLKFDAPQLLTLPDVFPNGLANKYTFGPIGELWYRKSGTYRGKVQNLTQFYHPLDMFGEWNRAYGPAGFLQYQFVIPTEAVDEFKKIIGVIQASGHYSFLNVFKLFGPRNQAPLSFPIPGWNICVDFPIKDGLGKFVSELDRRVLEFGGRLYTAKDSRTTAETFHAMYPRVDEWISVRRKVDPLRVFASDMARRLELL
Description: Inhibition of Mycobacterium tuberculosis wild type DprE1 expressed in Escherichia coli BL21 DE3 assessed as formation of resorufin using FPR as substrate incubated for 10 mins by Amplex Red dye microplate assay.

Experiment [3] deals with Mycolicibacterium smegmatis. Nature of the experiment: Antimycobacterial activity against Mycobacterium smegmatis mc2155 assessed as inhibition of bacterial growth incubated for 7 days by microplate alamar blue assay. Type of experiment: functional. The note with it: mc2155, 168 h, time 7 day.
Experiment [4] has as its system Mycobacterium tuberculosis. Description: Antimycobacterial activity against Mycobacterium tuberculosis H37Rv assessed as reduction in bacterial colony forming units at 20 times MIC concentration measured after 7 days by time kill assay. The note with it: time 7.0 day. Type of experiment: functional, organism-based.
Experiment [5] concerns Mycobacterium tuberculosis. Nature of the experiment: Antimycobacterial activity against Mycobacterium tuberculosis H37Rv assessed as reduction in bacterial colony forming units at 20 times MIC concentration measured after 21 days by time kill assay. Format: functional. The note with it: time 21 day.
Experiment [6] has as its system Mycobacterium tuberculosis. Description: Antimycobacterial activity against Mycobacterium tuberculosis H37Rv infected in mouse macrophage J774A.1 cell assessed as reduction in bacterial colony forming units incubated for 21 days. Type of experiment: functional. The note with it: time 21 day.
For experiment [7], the system named is Mycolicibacterium smegmatis. Nature of the experiment: Antimycobacterial activity against Mycobacterium smegmatis wild type DprE1 assessed as inhibition of bacterial growth incubated for 7 days by microplate alamar blue assay. Type of experiment: functional. The note with it: 168 h, time 7 day.

Molecules are shown by their SMILES. pIC50: −log10 of the molar value. Converted amounts (≈) assume the structure as drawn. The source made the active and inactive calls. No cut-off for these calls is given here.

As for `CCOC(=O)NC(=O)c1ccsc1NC(=O)c1ccc(C(C)=O)cc1`, in experiment [1], the MIC was more than 300 µM. In addition, the pIC50 in experiment [2] was 4.44.
In the same order, the values of `O=C(NC(=O)c1ccsc1NC(=O)c1nc2ccccc2s1)OCC1CCCC1` are more than 250 µM and 4.65.
In the same order, the values of `N#Cc1ccc(C(=O)Nc2sccc2C(=O)NC(=O)OCC2CC2)cc1` are more than 250 µM and 4.72.
For `CCOC(=O)NC(=O)c1ccsc1NC(=O)c1ccc(C#N)cc1`, in that order: more than 300 µM and less than 4.19.
For the compound `O=C(NC(=O)c1ccsc1NC(=O)c1nc2ccccc2s1)OC1CCC1`, in experiment [1], the MIC is more than 250 µM. Further, in experiment [2], the pIC50 is 4.73.
For `O=C(NC(=O)c1ccsc1NC(=O)c1nc2ccccc2s1)OCC1CC1`, the MIC in experiment [3] came out at 12.4 µM (≈ 4.99 µg/mL); in experiment [1], 0.77 µM (≈ 0.309 µg/mL). Besides, the result in experiment [4] was Active. Moreover, the Activity is 3 log10CFU/ml in experiment [5] and 1.1 log10CFU in experiment [6]. Besides, in experiment [2], the pIC50 is 8.00.
On to `CCOC(=O)NC(=O)c1ccsc1NC(=O)c1nc2ccccc2s1`, for which the MIC is 33.2 µM (≈ 12.5 µg/mL) in experiment [3], 0.23 µM (≈ 0.0863 µg/mL) in experiment [7] and 1.68 µM (≈ 0.631 µg/mL) in experiment [1]. The Activity is 3 log10CFU/ml in experiment [5] and 0.6 log10CFU in experiment [6]. For the same compound, the pIC50 in experiment [2] was 7.28.
Turning to `CC(=O)c1ccc(C(=O)Nc2sccc2C(=O)NC(=O)OCC2CC2)cc1`, the MIC in experiment [1] came out at 51.8 µM (≈ 20 µg/mL). Further, the negative logarithm of the IC50 (pIC50) in experiment [2] is 5.92.
With `O=C(NC(=O)c1ccsc1NC(=O)c1nc2ccccc2s1)OCC1CCC1`, the figures for the MIC in experiment [3] and in experiment [1] were 24.1 µM (≈ 9.99 µg/mL) and 3.01 µM (≈ 1.25 µg/mL), respectively. For the same compound, in experiment [6], the Activity worked out at 0.9 log10CFU. The pIC50 in experiment [2] was 7.01.
Regarding `O=C(NC(=O)c1ccsc1NC(=O)c1nc2ccccc2s1)OCC1CCCCC1`, the MIC in experiment [1] was more than 250 µM. Moreover, the pIC50 in experiment [2] was less than 4.19.
As for `CCOC(=O)NC(=O)c1cc(F)sc1NC(=O)c1nc2ccccc2s1`, the MIC in experiment [7] was 0.046 µM (≈ 0.0181 µg/mL).
Take `N#Cc1ccc(C(=O)Nc2sccc2C(=O)NC(=O)OCC2CC2)nc1`: the MIC in experiment [1] turned out to be 216 µM (≈ 79.8 µg/mL). In experiment [2], the pIC50 was 4.94.
Regarding `CCOC(=O)NC(=O)c1ccsc1NC(=O)c1nc2cnccc2s1`, the MIC in experiment [7] was found to be 0.089 µM (≈ 0.0335 µg/mL).
For `CO[C@H]1/C=C/O[C@@]2(C)Oc3c(C)c(O)c4c(O)c(c(/C=N/N5CCN(C)CC5)c(O)c4c3C2=O)NC(=O)/C(C)=C\C=C\[C@H](C)[C@H](O)[C@@H](C)[C@@H](O)[C@@H](C)[C@H](OC(C)=O)[C@@H]1C` [RIFAMPIN], the MIC is 0.35 µM (≈ 0.288 µg/mL) in experiment [3] and 0.11 µM (≈ 0.0905 µg/mL) in experiment [1]. Moreover, the Activity in experiment [5] is listed as 3 log10CFU/ml; in experiment [6] it was 1.1 log10CFU.
With `CCOC(=O)NC(=O)c1ccsc1NC(=O)c1ccc(C#N)cn1`, in experiment [1], the MIC was more than 300 µM. Besides, the pIC50 in experiment [2] was 4.38.

Source of the values: ChEMBL document CHEMBL5143519, “Exploring disordered loops in DprE1 provides a functional site to combat drug-resistance in Mycobacterium strains” (Eur J Med Chem, 2022).
